Source: patent US10881110B2, “Herbicidal compositions comprising isoxazolo[5,4-b]pyridines” (BASF SE, priority 2014, dated 2021)

Columns and labels:
Experiment in all cases: greenhouse post-emergence herbicidal test
[1] = test system: ERICA; format: in vivo, Conyza canadensis; parameters: key to herbicidal activity against ERICA found: rating on a scale from 0 to 100; details: post emergence
Experimental: (§1) The culture containers used were plastic pots containing medium loamy sand with approximately 4.6% of humus and 69.9% sand as substrate. The seeds of the test plants were sown separately for each species.
(§2) For the post-emergence treatment, the test plants were grown to a plant height of from 1 to 15 cm, depending on the plant habit, and only then treated with the active compounds which had been suspended or emulsified in water. To this end, the test plants were either sown directly, and grown in the same containers, or they were first grown separately as seedlings and transplanted into the test containers a few days prior to treatment.
(§3) Depending on the species, the plants were kept at 10-25° C. and 20-35° C., respectively.
(§4) The test period extended over 1 to 3 weeks. During this time, the plants were tended and their response to the individual treatments was evaluated 20 days after treatment except mentioned otherwise.
(§5) Evaluation was carried out using a scale from 0 to 100. 100 means no emergence of the plants, or complete destruction of at least the above-ground parts, and 0 means no damage or normal course of growth.
(§6) The respective stated components A and B, and, if appropriate, C, were formulated as a 10% by weight strength emulsion concentrate and, with addition of the amount of solvent system, introduced into the spray liquor used for applying the active compound. In the examples, the solvent used was water.
(§7) In the examples below, using the method of S. R. Colby (1967) “Calculating synergistic and antagonistic responses of herbicide combinations”, Weeds 15, p. 22 ff., the value E, which is expected if the activity of the individual active compounds is only additive, was calculated. E=X+Y−(X·Y/100)

[2] = test system: IPOHE; format: in vivo, Ipomoea hederacea; parameters: key to herbicidal activity against IPOHE found: rating on a scale from 0 to 100
Experimental: as §1, §2, §3, §4, §5, §6, §7

[3] = test system: PAPRH; format: in vivo, Papaver rhoeas; parameters: key: rating on a scale from 0 to 100
Experimental: as §1, §2, §3, §4, §5, §6, §7

[4] = test system: GERDI; format: in vivo, Geranium dissectum; parameters: key to herbicidal activity against GERDI found: rating on a scale from 0 to 100; details: for herbicidal activity against GERDI found: I.1 62.5 g/ha
Experimental: as §1, §2, §3, §4, §5, §6, §7

[5] = test system: MATCH; format: in vivo, Matricaria recutita; parameters: key to herbicidal activity against MATCH found: rating on a scale from 0 to 100
Experimental: as §1, §2, §3, §4, §5, §6, §7

[6] = test system: ECHCG; format: in vivo, Echinochloa crus-galli; parameters: key to herbicidal activity against ECHCG found / herbicidal activity against ECHCH found: scale 0 to 100
Experimental: as §1, §2, §3, §4, §5, §6, §7

[7] = test system: POLCO; format: in vivo, Polygonum convolvulus; parameters: key to herbicidal activity against POLCO found: rating on a scale from 0 to 100; details: for herbicidal activity against POLCO found: post emergence, 20 days after treatment
Experimental: as §1, §2, §3, §4, §5, §6, §7

[8] = test system: ABUTH; format: in vivo, Abutilon theophrast; parameters: key to herbicidal activity against ABUTH found: rating on a scale from 0 to 100
Experimental: as §1, §2, §3, §4, §5, §6, §7

[9] = test system: ALOMY; format: in vivo, Alopecurus myosuroides; parameters: key to herbicidal activity against ALOMY found: rating on a scale from 0 to 100; details: for herbicidal activity against ALOMY found: post emergence, I.1 62.5 g/ha
Experimental: as §1, §2, §3, §4, §5, §6, §7

[10] = test system: APESV; format: in vivo, Apera spica-venti; parameters: key to herbicidal activity against APESV found: rating on a scale from 0 to 100; details: post emergence
Experimental: as §1, §2, §3, §4, §5, §6, §7

[11] = test system: KCHSC; format: in vivo, Kochia scoparia; parameters: key to herbicidal activity against KCHSC found: rating on a scale from 0 to 100; details: for herbicidal activity against KCHSC found: post emergence, B.88 1 g/ha a.i.
Experimental: as §1, §2, §3, §4, §5, §6, §7

[12] = test system: GALAP; format: in vivo, Galium aparine; details: Galium aparine, post-emergence, 480 h, read-out: herbicidal activity against GALAP found
Experimental: as §1, §2, §3, §4, §5, §6, §7

[13] = test system: VIOAR; format: in vivo, Viola arvensis; details: Viola arvensis, post-emergence, read-out: herbicidal activity against VIOAR found
Experimental: as §1, §2, §3, §4, §5, §6, §7

[14] = I.1 62.5 g/ha, B.57 2 g/ha a.i.
[15] = I.1 31.25 g/ha, B.88 1 g/ha a.i.
[16] = I.1 31.25 g/ha, B.88 2 g/ha a.i.
[17] = I.1 62.5 g/ha, B.88 1 g/ha a.i.
[18] = I.1 62.5 g/ha, B.88 2 g/ha a.i.
[19] = Geranium dissectum, post-emergence, 480 h, read-out: herbicidal activity against GERDI found

Q: Which “herbicidal activity against ERICA found” value [1, 14] does the source give for `COc1cc(OC)n2nc(NS(=O)(=O)c3c(C(F)(F)F)ccnc3OC)nc2n1` [B.57, pyroxsulam] here?
A: Its value is 75.

Q: What about the “herbicidal activity against IPOHE found” value ([2]; post emergence, I.1 62.5 g/ha, B.57 1 g/ha a.i.) of the same molecule?
A: Its value is 80.

Q: And the “herbicidal activity against PAPRH found” value [3, 14]?
A: The value was 0.

Q: Which results are given for `CCS(=O)(=O)c1cccnc1S(=O)(=O)NC(=O)Nc1nc(OC)cc(OC)n1` [B.59, rimsulfuron]?
A: pest or weed control at 0.5 g/ha ([1]; Erigeron canadensis, post-emergence, 480 h, 0.5 g/ha a.i., read-out: herbicidal activity against ERICA found): 65%; pest or weed control at 0.5 g/ha ([4]; Geranium dissectum, post-emergence, 480 h, post emergence, 0.5 g/ha a.i., read-out: herbicidal activity against GERDI found): 75%; pest or weed control at 0.5 g/ha ([2]; Ipomoea hederacea, post-emergence, 480 h, post emergence, 0.5 g/ha a.i., read-out: herbicidal activity against IPOHE found): 90%; pest or weed control at 0.5 g/ha ([5]; Matricaria chamomilla, post-emergence, 480 h, post emergence, 0.5 g/ha a.i., read-out: herbicidal activity against MATCH found): 75%; herbicidal activity against PAPRH found ([3]; 0.5 g/ha a.i.): 65

Q: Which “herbicidal activity against ECHCG found” value ([6]; post emergence, a.i. g/ha: I.1 62.5, B.79 25, 20 days after treatment) does the source give for `CSc1nnc(C(C)(C)C)c(=O)n1N` [B.79, metribuzin] here?
A: Its value is 20%.

Q: What about the “herbicidal activity against MATCH found” value ([5]; post emergence, a.i. g/ha: I.1 20.8, B.79 25, 20 days after treatment) of the same molecule?
A: Its value is 65%.

Q: What about the “herbicidal activity against POLCO found” value ([7]; a.i. g/ha: I.1 20.8, B.79 25) of the same molecule?
A: The value was 20%.

Q: And the “herbicidal activity against POLCO found” value ([7]; a.i. g/ha: I.1 62.5, B.79 25)?
A: The value was 20%.

Q: With `C#CCN1C(=O)COc2cc(F)c(N3C(=O)C4=C(CCCC4)C3=O)cc21` [B.88, flumioxazin] as the molecule, how does the “herbicidal activity against ABUTH found” value ([8]; post emergence, I.1 31.25 g/ha, B.88 1 g/ha a.i.) read?
A: The value was 90.

Q: What about the “herbicidal activity against ALOMY found” value ([9]; B.88 1 g/ha a.i.) of the same molecule?
A: The value was 0.

Q: And the “herbicidal activity against ALOMY found” value ([9]; B.88 2 g/ha a.i.)?
A: Its value is 20.

Q: What about the “herbicidal activity against APESV found” value ([10]; I.1 15.62 g/ha, B.88 1 g/ha a.i.) of the same molecule?
A: Its value is 25.

Q: What about the “herbicidal activity against APESV found” value [10, 15] of the same molecule?
A: The value was 25.

Q: And the “herbicidal activity against APESV found” value [10, 16]?
A: Its value is 65.

Q: And the “herbicidal activity against APESV found” value [10, 17]?
A: The value was 25.

Q: What about the “herbicidal activity against APESV found” value [10, 18] of the same molecule?
A: The value was 65.

Q: And the “herbicidal activity against GERDI found” value ([4]; post emergence, B.88 1 g/ha a.i.)?
A: Its value is 70.

Q: What about the “herbicidal activity against GERDI found” value ([4]; post emergence, B.88 2 g/ha a.i.) of the same molecule?
A: Its value is 70.

Q: And the “herbicidal activity against KCHSC found” value ([11]; I.1 15.62 g/ha)?
A: The value was 85.

Q: And the “herbicidal activity against KCHSC found” value ([11]; I.1 31.25 g/ha)?
A: Its value is 85.

Q: What about the “herbicidal activity against KCHSC found” value ([11]; I.1 62.5 g/ha) of the same molecule?
A: Its value is 85.

Q: What about the “herbicidal activity against PAPRH found” value ([3]; I.1 15.62 g/ha, B.88 2 g/ha a.i.) of the same molecule?
A: Its value is 75.

Q: What about the “herbicidal activity against PAPRH found” value [3, 15] of the same molecule?
A: Its value is 25.

Q: And the “herbicidal activity against PAPRH found” value [3, 16]?
A: Its value is 75.

Q: And the “herbicidal activity against PAPRH found” value [3, 17]?
A: The value was 25.

Q: And the “herbicidal activity against PAPRH found” value [3, 18]?
A: The value was 75.

Q: What does the source list for `CP(=O)(O)CCC(N)C(=O)O` (stereo not drawn) [B.120, glufosinate-ammonium]?
A: pest or weed control at 125 g/ha ([8]; Abutilon theophrasti, post-emergence, 480 h, read-out: herbicidal activity against ABUTH found): 70%; pest or weed control at 125 g/ha [12]: 80%; pest or weed control at 62.5 g/ha [4, 19]: 40%; pest or weed control at 125 g/ha [4, 19]: 90%; pest or weed control at 62.5 g/ha ([2]; Ipomoea hederacea, post-emergence, 480 h, read-out: herbicidal activity against IPOHE found): 80%; pest or weed control at 62.5 g/ha ([11]; Bassia scoparia, post-emergence, 480 h, read-out: herbicidal activity against KCHSC found): 45%; pest or weed control at 62.5 g/ha ([5]; Matricaria chamomilla, post-emergence, 480 h, read-out: herbicidal activity against MATCH found): 55%; herbicidal activity against PAPRH found ([3]; 62.5 g/ha a.i.): 30; pest or weed control at 125 g/ha ([7]; Fallopia convolvulus, post-emergence, 480 h, read-out: herbicidal activity against POLCO found): 65%; pest or weed control at 125 g/ha [13]: 15%

Q: With `COC(=O)c1c(Cl)nn(C)c1S(=O)(=O)NC(=O)Nc1nc(OC)cc(OC)n1` [halosulfuron-methyl] as the molecule, how does the pest or weed control at 5 g/ha ([9]; Alopecurus myosuroides, post-emergence, 480 h, read-out: herbicidal activity against ALOMY found) read?
A: The pest or weed control at 5 g/ha was 10%.

Q: And the pest or weed control at 5 g/ha ([6]; Echinochloa crus-galli, post-emergence, 480 h, read-out: herbicidal activity against ECHCG found)?
A: Its pest or weed control at 5 g/ha is 45%.
